pIC50: −log10 of the molar value. Values joined by “and” are separate entries in the source; they are usually repeats but may differ in a detail not shown here. Identical values can stand only once. “Also recorded” adds a separate entry of the source. Like-named read-outs stand apart in the source and are kept apart here.
Key:
CYP2B6 = assay: in vitro; format: in vitro ADME, human; conditions: 48 h
[1] = combined DMD patient populations, DFZ 0.9 mg/kg/day; ref PTC internal data; cited from earlier work
human OATP1B3 = target: T1, human OATP1B3 (Homo sapiens, UniProt Q9NPD5); assay: Transporter inhibition, uptake assay; format: in vitro ADME
T1 sequence (Q9NPD5 1-702): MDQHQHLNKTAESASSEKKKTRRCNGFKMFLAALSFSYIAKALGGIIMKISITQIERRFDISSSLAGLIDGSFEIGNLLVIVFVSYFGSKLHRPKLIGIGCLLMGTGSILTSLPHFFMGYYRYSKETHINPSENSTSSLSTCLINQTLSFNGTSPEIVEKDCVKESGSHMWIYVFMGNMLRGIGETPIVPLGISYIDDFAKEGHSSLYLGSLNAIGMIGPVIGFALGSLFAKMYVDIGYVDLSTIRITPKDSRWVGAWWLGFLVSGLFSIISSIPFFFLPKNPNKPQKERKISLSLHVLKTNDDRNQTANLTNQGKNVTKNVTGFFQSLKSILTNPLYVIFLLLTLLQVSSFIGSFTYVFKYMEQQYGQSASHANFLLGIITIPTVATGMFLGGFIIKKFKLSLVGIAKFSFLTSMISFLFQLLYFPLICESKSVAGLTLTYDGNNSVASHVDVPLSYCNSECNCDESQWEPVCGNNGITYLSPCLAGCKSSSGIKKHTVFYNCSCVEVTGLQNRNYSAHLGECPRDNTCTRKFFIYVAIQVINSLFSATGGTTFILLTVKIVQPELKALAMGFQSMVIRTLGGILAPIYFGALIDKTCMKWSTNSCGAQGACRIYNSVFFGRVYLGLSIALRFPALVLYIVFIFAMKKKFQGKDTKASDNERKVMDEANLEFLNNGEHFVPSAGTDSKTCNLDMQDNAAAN

human OCT1 = human OCT1 (Homo sapiens, UniProt O15245); assay: Transporter inhibition, uptake assay; format: in vitro ADME
human OCT1, sequence (O15245 whole entry): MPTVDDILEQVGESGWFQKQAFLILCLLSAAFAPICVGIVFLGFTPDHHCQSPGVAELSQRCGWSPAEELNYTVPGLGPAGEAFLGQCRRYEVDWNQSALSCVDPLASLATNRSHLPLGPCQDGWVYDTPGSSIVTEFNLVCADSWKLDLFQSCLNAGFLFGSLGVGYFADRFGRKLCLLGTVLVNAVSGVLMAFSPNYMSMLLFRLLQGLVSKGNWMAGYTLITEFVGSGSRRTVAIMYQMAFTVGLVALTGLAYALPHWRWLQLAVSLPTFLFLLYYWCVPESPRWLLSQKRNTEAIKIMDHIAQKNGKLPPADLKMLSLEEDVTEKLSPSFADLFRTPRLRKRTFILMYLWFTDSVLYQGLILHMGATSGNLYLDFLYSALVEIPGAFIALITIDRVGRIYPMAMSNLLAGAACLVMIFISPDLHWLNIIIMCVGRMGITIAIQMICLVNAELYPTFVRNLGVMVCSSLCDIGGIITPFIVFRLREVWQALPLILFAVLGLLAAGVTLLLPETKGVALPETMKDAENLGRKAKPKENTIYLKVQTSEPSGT

human MATE1 = target: T2, human MATE1 (Homo sapiens, UniProt Q96FL8); assay: Transporter inhibition, uptake assay; format: in vitro ADME
T2 sequence (Q96FL8 1-570): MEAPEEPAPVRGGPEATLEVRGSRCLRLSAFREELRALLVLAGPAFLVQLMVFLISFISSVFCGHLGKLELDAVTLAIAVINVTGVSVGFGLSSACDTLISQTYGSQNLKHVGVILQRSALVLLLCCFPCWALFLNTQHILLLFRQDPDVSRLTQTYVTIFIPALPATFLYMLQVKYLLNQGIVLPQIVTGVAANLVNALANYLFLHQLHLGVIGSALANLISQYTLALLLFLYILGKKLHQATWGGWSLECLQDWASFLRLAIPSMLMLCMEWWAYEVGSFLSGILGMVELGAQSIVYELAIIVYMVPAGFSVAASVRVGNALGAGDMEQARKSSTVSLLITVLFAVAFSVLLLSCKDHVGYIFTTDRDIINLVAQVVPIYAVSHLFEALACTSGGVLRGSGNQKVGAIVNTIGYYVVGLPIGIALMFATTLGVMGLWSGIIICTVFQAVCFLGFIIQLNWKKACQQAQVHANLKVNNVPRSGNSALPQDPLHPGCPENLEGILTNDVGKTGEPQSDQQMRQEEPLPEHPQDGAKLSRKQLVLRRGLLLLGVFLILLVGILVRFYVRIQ

human OAT3 = target: T3, human OAT3 (Homo sapiens, UniProt Q8TCC7); assay: Transporter inhibition, uptake assay; format: in vitro ADME
T3 sequence (Q8TCC7 1-542): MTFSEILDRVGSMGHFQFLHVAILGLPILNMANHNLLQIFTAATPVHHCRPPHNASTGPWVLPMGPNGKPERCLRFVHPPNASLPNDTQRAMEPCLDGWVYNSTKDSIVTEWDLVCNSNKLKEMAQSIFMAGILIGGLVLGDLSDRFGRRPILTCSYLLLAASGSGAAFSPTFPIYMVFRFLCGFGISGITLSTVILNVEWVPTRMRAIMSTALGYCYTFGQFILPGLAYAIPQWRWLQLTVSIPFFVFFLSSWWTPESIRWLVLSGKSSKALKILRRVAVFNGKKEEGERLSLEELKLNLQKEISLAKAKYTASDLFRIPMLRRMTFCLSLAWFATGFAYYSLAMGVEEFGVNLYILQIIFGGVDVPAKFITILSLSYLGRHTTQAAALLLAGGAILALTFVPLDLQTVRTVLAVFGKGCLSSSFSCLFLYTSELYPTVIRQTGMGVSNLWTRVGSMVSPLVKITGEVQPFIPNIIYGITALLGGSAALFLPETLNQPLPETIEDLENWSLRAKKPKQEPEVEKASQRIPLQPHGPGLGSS

CYP3A4 = CYP3A4 (Homo sapiens, UniProt P08684); assay: CYP inhibition in pooled human liver microsomes, midazolam or testosterone probe; format: in vitro ADME; conditions: for pIC50: read-out: IC50, No preincubation, pooled HLMs, n = 3
CYP3A4, sequence (P08684 whole entry): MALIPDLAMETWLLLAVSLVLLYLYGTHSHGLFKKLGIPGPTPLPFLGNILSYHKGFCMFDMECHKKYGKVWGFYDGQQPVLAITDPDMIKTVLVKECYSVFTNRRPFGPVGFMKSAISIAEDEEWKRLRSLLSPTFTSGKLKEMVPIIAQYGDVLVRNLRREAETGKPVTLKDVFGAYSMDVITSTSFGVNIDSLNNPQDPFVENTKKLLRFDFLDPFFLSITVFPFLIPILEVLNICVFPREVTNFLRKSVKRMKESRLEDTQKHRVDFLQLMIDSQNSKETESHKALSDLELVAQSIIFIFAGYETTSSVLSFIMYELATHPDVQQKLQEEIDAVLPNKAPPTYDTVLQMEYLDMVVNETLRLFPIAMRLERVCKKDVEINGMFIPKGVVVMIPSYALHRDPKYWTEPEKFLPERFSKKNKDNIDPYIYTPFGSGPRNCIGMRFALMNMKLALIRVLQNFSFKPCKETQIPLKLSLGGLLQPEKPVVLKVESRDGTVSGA

SMILES: CC1=N[C@]2(C(=O)CO)[C@@H](C[C@H]3[C@@H]4C[C@@H](O)C5=CC(=O)C=C[C@]5(C)[C@H]4[C@@H](O)C[C@@]32C)O1 [6β‐OH‐21‐desDFZ, 6β‐Hydroxy‐21‐desacetyl deflazacort]
- CYP2B6 enzyme activity fold induction (CYP2B6; donor one, 0.002 µM): 0.921 fold
- CYP2B6 mRNA fold induction (CYP2B6; donor one, 0.002 µM): 0.680 fold
- CYP2B6 enzyme activity fold induction (CYP2B6; donor one, 0.01 µM): 0.826 fold
- CYP2B6 mRNA fold induction (CYP2B6; donor one, 0.01 µM): 0.750 fold
- CYP2B6 enzyme activity fold induction (CYP2B6; donor one, 0.05 µM): 0.767 fold
- CYP2B6 mRNA fold induction (CYP2B6; donor one, 0.05 µM): 0.736 fold
- CYP2B6 enzyme activity fold induction (CYP2B6; donor one, 0.25 µM): 0.752 fold
- CYP2B6 mRNA fold induction (CYP2B6; donor one, 0.25 µM): 0.794 fold
- CYP2B6 enzyme activity fold induction (CYP2B6; donor one, 5 µM): 0.832 fold
- CYP2B6 mRNA fold induction (CYP2B6; donor one, 5 µM): 0.616 fold
- CYP2B6 enzyme activity fold induction (CYP2B6; donor one, 10 µM): 0.814 fold
- CYP2B6 mRNA fold induction (CYP2B6; donor one, 10 µM): 0.663 fold
- CYP2B6 enzyme activity fold induction (CYP2B6; donor one, 20 µM): 0.896 fold
- CYP2B6 mRNA fold induction (CYP2B6; donor one, 20 µM): 0.756 fold
- CYP2B6 enzyme activity fold induction (CYP2B6; donor three, 0.002 µM): 0.836 fold
- CYP2B6 mRNA fold induction (CYP2B6; donor three, 0.002 µM): 0.704 fold
- CYP2B6 enzyme activity fold induction (CYP2B6; donor three, 0.01 µM): 0.829 fold
- CYP2B6 mRNA fold induction (CYP2B6; donor three, 0.01 µM): 0.745 fold
- CYP2B6 enzyme activity fold induction (CYP2B6; donor three, 0.05 µM): 0.829 fold
- CYP2B6 mRNA fold induction (CYP2B6; donor three, 0.05 µM): 0.721 fold
- CYP2B6 enzyme activity fold induction (CYP2B6; donor three, 0.25 µM): 0.810 fold
- CYP2B6 mRNA fold induction (CYP2B6; donor three, 0.25 µM): 0.726 fold
- CYP2B6 enzyme activity fold induction (CYP2B6; donor three, 5 µM): 1.01 fold
- CYP2B6 mRNA fold induction (CYP2B6; donor three, 5 µM): 0.791 fold
- CYP2B6 enzyme activity fold induction (CYP2B6; donor three, 10 µM): 1.13 fold
- CYP2B6 mRNA fold induction (CYP2B6; donor three, 10 µM): 0.806 fold
- CYP2B6 enzyme activity fold induction (CYP2B6; donor three, 20 µM): 1.08 fold
- CYP2B6 mRNA fold induction (CYP2B6; donor three, 20 µM): 0.840 fold
- CYP2B6 enzyme activity fold induction (CYP2B6; donor two, 0.002 µM): 0.960 fold
- CYP2B6 mRNA fold induction (CYP2B6; donor two, 0.002 µM): 0.643 fold
- CYP2B6 enzyme activity fold induction (CYP2B6; donor two, 0.01 µM): 0.895 fold
- CYP2B6 mRNA fold induction (CYP2B6; donor two, 0.01 µM): 0.522 fold
- CYP2B6 enzyme activity fold induction (CYP2B6; donor two, 0.05 µM): 0.944 fold
- CYP2B6 mRNA fold induction (CYP2B6; donor two, 0.05 µM): 0.571 fold
- CYP2B6 enzyme activity fold induction (CYP2B6; donor two, 0.25 µM): 0.963 fold
- CYP2B6 mRNA fold induction (CYP2B6; donor two, 0.25 µM): 0.622 fold
- CYP2B6 enzyme activity fold induction (CYP2B6; donor two, 5 µM): 1.22 fold
- CYP2B6 mRNA fold induction (CYP2B6; donor two, 5 µM): 0.515 fold
- CYP2B6 enzyme activity fold induction (CYP2B6; donor two, 10 µM): 1.20 fold
- CYP2B6 mRNA fold induction (CYP2B6; donor two, 10 µM): 0.596 fold
- CYP2B6 enzyme activity fold induction (CYP2B6; donor two, 20 µM): 1.40 fold
- CYP2B6 mRNA fold induction (CYP2B6; donor two, 20 µM): 0.809 fold
- induction of CYP2B6 (mRNA or enzyme activity), conclusion (CYP2B6; human hepatocytes, three donors): no meaningful concentration‐dependent induction; also recorded: did not appear to be an inducer; also recorded: did not induce
- plasma Cmax at steady state, mean value [1]: 142 ng/mL
- estimated plasma Cmax/IC50 ratio (human OATP1B3; OATP1B3, Cmax 0.34 µM, assumed 100% free): 0.008
- Maximum inhibition at 50 µM (human OATP1B3; OATP1B3 UPT, n = 3): 57 % of control
- pIC50 (human OATP1B3; OATP1B3 UPT, brackets: 95% confidence interval): 4.37
- inhibitory interaction with transporter (human OCT1; OCT1, up to 50 µM): no inhibitory interaction
- Maximum inhibition at 50 µM (human OCT1; OCT1 UPT, n = 3): 23 % of control
- inhibitory interaction with transporter (human MATE1; MATE1, up to 50 µM): no inhibitory interaction
- Maximum inhibition at 50 µM (human MATE1; MATE1 UPT, n = 3): 26 % of control
- inhibitory interaction with transporter (human OAT3; OAT3, up to 50 µM): did not show interaction; also recorded: no inhibitory interaction
- Maximum inhibition at 50 µM (human OAT3; OAT3 UPT, n = 3): <20 % of control
- estimated plasma Cmax/IC50 ratio (CYP3A4; CYP3A4, Cmax 0.34 µM, assumed 100% free): 0.01
- pIC50 (CYP3A4; CYP3A4 (Midazolam)): ~4.46 and ≤ 4.70
- pIC50 (CYP3A4; CYP3A4 (Midazolam), listed as 6β‐hydroxy‐21‐desacetyl deflazacort): 4.46
- pIC50 (CYP3A4; CYP3A4 (Testosterone)): < 4.30

From paper PMC7982320 (Pharmacology Research & Perspectives, 2021)
